What was measured:
Experiment in all cases: Test D controlled growth environment herbicide test, pre- and postemergence
Format in all cases: in vivo
[1] = test system: barley, spring (spring barley, Hordeum vulgare)
Method in brief: (§1)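 Pre-emergence: seeds sown in silt loam soil were sprayed with compound in a non-phytotoxic solvent mix containing surfactant. Post-emergence: plants at 2 to 18 cm (1- to 4-leaf stage) in peat moss/vermiculite medium got the same formulation. Visual 0–100 rating versus controls after 14 to 21 d.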

[2] = test system: blackgrass (Alopecurus myosuroides)
Method in brief: as §1

[3] = test system: bluegrass (annual bluegrass, Poa annua)
Method in brief: as §1

[4] = test system: buckwheat, wild (wild buckwheat, Polygonum convolvulus)
Method in brief: as §1

[5] = test system: canarygrass (Phalaris minor)
Method in brief: as §1

[6] = test system: chamomile (scentless chamomile, Matricaria inodora)
Method in brief: as §1

[7] = test system: field violet (Viola arvensis)
Method in brief: as §1

[8] = test system: foxtail, green (green foxtail, Setaria viridis)
Method in brief: as §1

[9] = test system: oat, wild (wild oat, Avena fatua)
Method in brief: as §1

[10] = test system: pigweed (Amaranthus retroflexus)
Method in brief: as §1

[11] = test system: radish, wild (wild radish, Raphanus raphanistrum)
Method in brief: as §1

[12] = test system: ryegrass, Italian (Italian ryegrass, Lolium multiflorum)
Method in brief: as §1

[13] = test system: wheat, spring (spring wheat, Triticum aestivum)
Method in brief: as §1

[14] = Postemergence, 31 g ai/ha, scale 0 to 100 (0 no effect, 100 complete control)
[15] = Postemergence, 125 g ai/ha, visual rating on scale 0 (no effect) to 100 (complete control), 14 to 21 d
[16] = Postemergence, 250 g ai/ha, scale 0 to 100 (0 no effect, 100 complete control)
[17] = Preemergence, 62 g ai/ha, scale 0 to 100 (0 no effect, 100 complete control)
[18] = Preemergence, 125 g ai/ha, scale 0 to 100 (0 no effect, 100 complete control)
[19] = Preemergence, 250 g ai/ha, scale 0 to 100 (0 no effect, 100 complete control)
[20] = postemergence, 62 g ai/ha, scale 0 to 100, 0 no effect, 100 complete control

## C#CCOC(=O)Oc1c(C)nn(C)c(=O)c1-c1c(C)sc2ccc(C)cc12 [Compound 87]
[1]; [14]
  Barley, Spring plant response rating: 0
[1]; [15]
  Plant response rating, Barley, Spring: 0
[1]; [16]
  Plant response rating, Barley, Spring: 5
[1]; Preemergence, 31 g ai/ha
  Plant response rating (scale of 0 to 100), Barley, Spring: 0
[1]; [17]
  Plant response rating, Barley, Spring: 0
[1]; [18]
  Plant response rating, Barley, Spring: 0
[1]; [19]
  Plant response rating, Barley, Spring: 5
[1]; [20]
  Plant response rating, Barley, Spring: 0
[2]; [14]
  Blackgrass plant response rating: 65
[2]; [15]
  Plant response rating, Blackgrass: 85
[2]; [16]
  Plant response rating, Blackgrass: 90
[2]; Preemergence, 31 g ai/ha
  Plant response rating (scale of 0 to 100), Blackgrass: 70
[2]; [17]
  Plant response rating, Blackgrass: 75
[2]; [18]
  Plant response rating, Blackgrass: 80
[2]; [19]
  Plant response rating, Blackgrass: 80
[2]; [20]
  Plant response rating, Blackgrass: 75
[3]; [14]
  Bluegrass plant response rating: 25
[3]; [15]
  Plant response rating, Bluegrass: 45
[3]; [16]
  Plant response rating, Bluegrass: 45
[3]; Preemergence, 31 g ai/ha
  Plant response rating (scale of 0 to 100), Bluegrass: 25
[3]; [17]
  Plant response rating, Bluegrass: 35
[3]; [18]
  Plant response rating, Bluegrass: 45
[3]; [19]
  Plant response rating, Bluegrass: 70
[3]; [20]
  Plant response rating, Bluegrass: 25
[4]; [14]
  Buckwheat, Wild plant response rating: 85
[4]; [15]
  Plant response rating, Buckwheat, Wild: 100
[4]; [16]
  Plant response rating, Buckwheat, Wild: 100
[4]; Preemergence, 31 g ai/ha
  Plant response rating (scale of 0 to 100), Buckwheat, Wild: 0
[4]; [17]
  Plant response rating, Buckwheat, Wild: 0
[4]; [18]
  Plant response rating, Buckwheat, Wild: 0
[4]; [19]
  Plant response rating, Buckwheat, Wild: 60
[4]; [20]
  Plant response rating, Buckwheat, Wild: 100
[5]; [14]
  Canarygrass plant response rating: 55
[5]; [15]
  Plant response rating, Canarygrass: 85
[5]; [16]
  Plant response rating, Canarygrass: 90
[5]; Preemergence, 31 g ai/ha
  Plant response rating (scale of 0 to 100), Canarygrass: 85
[5]; Preemergence, 62 g ai/ha
  Plant response rating (scale of 0 to 100), Canarygrass: 90
[5]; [18]
  Plant response rating, Canarygrass: 90
[5]; [19]
  Plant response rating, Canarygrass: 95
[5]; [20]
  Plant response rating, Canarygrass: 80
[6]; [14]
  Chamomile plant response rating: 90
[6]; [15]
  Plant response rating, Chamomile: 100
[6]; [16]
  Plant response rating, Chamomile: 100
[6]; Preemergence, 31 g ai/ha
  Plant response rating (scale of 0 to 100), Chamomile: 95
[6]; Preemergence, 62 g ai/ha
  Plant response rating (scale of 0 to 100), Chamomile: 95
[6]; [18]
  Plant response rating, Chamomile: 100
[6]; [19]
  Plant response rating, Chamomile: 100
[6]; [20]
  Plant response rating, Chamomile: 100
[7]; [14]
  Field Violet plant response rating: 80
[7]; [15]
  Plant response rating, Field Violet: 100
[7]; [16]
  Plant response rating, Field Violet: 100
[7]; Preemergence, 31 g ai/ha
  Plant response rating (scale of 0 to 100), Field Violet: 80
[7]; Preemergence, 62 g ai/ha
  Plant response rating (scale of 0 to 100), Field Violet: 85
[7]; [18]
  Plant response rating, Field Violet: 95
[7]; [19]
  Plant response rating, Field Violet: 100
[7]; [20]
  Plant response rating, Field Violet: 85
[8]; [14]
  Foxtail, Green plant response rating: 70
[8]; [15]
  Plant response rating, Foxtail, Green: 80
[8]; [16]
  Plant response rating, Foxtail, Green: 90
[8]; Preemergence, 31 g ai/ha
  Plant response rating (scale of 0 to 100), Foxtail, Green: 10
[8]; Preemergence, 62 g ai/ha
  Plant response rating (scale of 0 to 100), Foxtail, Green: 55
[8]; [18]
  Plant response rating, Foxtail, Green: 95
[8]; [19]
  Plant response rating, Foxtail, Green: 95
[8]; [20]
  Plant response rating, Foxtail, Green: 75
[9]; [14]
  Oat, Wild plant response rating: 85
[9]; [15]
  Plant response rating, Oat, Wild: 98
[9]; [16]
  Plant response rating, Oat, Wild: 100
[9]; Preemergence, 31 g ai/ha
  Plant response rating (scale of 0 to 100), Oat, Wild: 80
[9]; Preemergence, 62 g ai/ha
  Plant response rating (scale of 0 to 100), Oat, Wild: 85
[9]; [18]
  Plant response rating, Oat, Wild: 90
[9]; [19]
  Plant response rating, Oat, Wild: 95
[9]; [20]
  Plant response rating, Oat, Wild: 95
[10]; [14]
  Pigweed plant response rating: 95
[10]; [15]
  Plant response rating, Pigweed: 100
[10]; [16]
  Plant response rating, Pigweed: 100
[10]; Preemergence, 31 g ai/ha
  Plant response rating (scale of 0 to 100), Pigweed: 50
[10]; Preemergence, 62 g ai/ha
  Plant response rating (scale of 0 to 100), Pigweed: 100
[10]; [18]
  Plant response rating, Pigweed: 100
[10]; [19]
  Plant response rating, Pigweed: 100
[10]; [20]
  Plant response rating, Pigweed: 100
[11]; [14]
  Radish, Wild plant response rating: 15
[11]; [15]
  Plant response rating, Radish, Wild: 30
[11]; [16]
  Plant response rating, Radish, Wild: 60
[11]; Preemergence, 31 g ai/ha
  Plant response rating (scale of 0 to 100), Radish, Wild: 45
[11]; Preemergence, 62 g ai/ha
  Plant response rating (scale of 0 to 100), Radish, Wild: 65
[11]; [18]
  Plant response rating, Radish, Wild: 75
[11]; [19]
  Plant response rating, Radish, Wild: 95
[11]; [20]
  Plant response rating, Radish, Wild: 20
[12]; [14]
  Ryegrass, Italian plant response rating: 90
[12]; [15]
  Plant response rating, Ryegrass, Italian: 95
[12]; [16]
  Plant response rating, Ryegrass, Italian: 98
[12]; Preemergence, 31 g ai/ha
  Plant response rating (scale of 0 to 100), Ryegrass, Italian: 90
[12]; Preemergence, 62 g ai/ha
  Plant response rating (scale of 0 to 100), Ryegrass, Italian: 95
[12]; [18]
  Plant response rating, Ryegrass, Italian: 98
[12]; [19]
  Plant response rating, Ryegrass, Italian: 98
[12]; [20]
  Plant response rating, Ryegrass, Italian: 95
[13]; [14]
  Wheat, Spring plant response rating: 0
[13]; [15]
  Plant response rating, Wheat, Spring: 5
[13]; [16]
  Plant response rating, Wheat, Spring: 10
[13]; Preemergence, 31 g ai/ha
  Plant response rating (scale of 0 to 100), Wheat, Spring: 0
[13]; Preemergence, 62 g ai/ha
  Plant response rating (scale of 0 to 100), Wheat, Spring: 0
[13]; [18]
  Plant response rating, Wheat, Spring: 15
[13]; [19]
  Plant response rating, Wheat, Spring: 20
[13]; [20]
  Plant response rating, Wheat, Spring: 0

From patent publication US10597388B2, “Pyridazinone herbicides” (FMC CORPORATION, priority 2014, dated 2020)
